Measurements taken from ChEMBL document CHEMBL1129673, “Antitumor activity of the R- and S-enantiomers of RS-2-[[hydroxy[[2-[ (octadecyloxy)methyl]tetrahydrofuran-2-yl]methoxy]-phosphinyl]oxy]-N, N,N,-trimethylethylaminium hydroxide inner salt” (1996).

How the values were obtained:
Mus musculus [1] = experiment: Antitumor activity against mouse macrophages after day 28 at dose 2.50 mg/kg by peroral administration; assay type: functional; conditions: dose 2.5 mg/kg; route oral
Mus musculus [2] = experiment: Antitumor activity against mouse macrophages after day 7 at dose 2.50 mg/kg by peroral administration; assay type: functional; conditions: dose 2.5 mg/kg; route oral
Mus musculus [3] = experiment: Mouse survived after 28 days at 2.5 mg/kg; 3/10; assay type: functional
Mus musculus [4] = experiment: Antitumor activity against mouse macrophages after day 21 at dose 2.50 mg/kg by peroral administration; assay type: functional; conditions: dose 2.5 mg/kg; route oral
Mus musculus [5] = experiment: Antitumor activity against mouse macrophages after day 14 at dose 2.50 mg/kg by peroral administration; assay type: functional; conditions: dose 2.5 mg/kg; route oral
Mus musculus [6] = experiment: Mouse survived after 28 days at 2.5 mg/kg; 8/10; assay type: functional
Mus musculus [7] = experiment: Mouse survived after 28 days at 0.25 mg/kg; 3/10; assay type: functional
Mus musculus [8] = experiment: Antitumor activity against mouse macrophages after day 14 at dose 0.25 mg/kg by peroral administration; assay type: functional; conditions: route oral
Mus musculus [9] = experiment: Antitumor activity against mouse macrophages after day 7 at dose 0.25 mg/kg by peroral administration; assay type: functional; conditions: route oral
YAC-1 [10] = experiment: Antitumor activity against YAC-1 tumor cells at concentration 5 ug/mL and at 72 hr using Activated Macrophage Cytotoxicity assay.; assay type: functional, Mus musculus
P815 [11] = experiment: Antitumor activity against P815 cells at concentration 1 ug/mL and at 72 hr using Activated Macrophage Cytotoxicity assay.; assay type: functional, Mus musculus
L1210 [12] = experiment: Antitumor activity against L1210 cells at concentration 5 ug/mL and at 72 hr and at 72 hr using Activated Macrophage Cytotoxicity assay.; assay type: functional, Mus musculus
YAC-1 [13] = experiment: Antitumor activity against YAC-1 tumor cells at concentration 3 ug/mL and at 72 hr using Activated Macrophage Cytotoxicity assay.; assay type: functional, Mus musculus
[14] = Antitumor activity against Abelson-8.1 cells at concentration 1 ug/mL and at 72 hr using Activated Macrophage Cytotoxicity assay.; assay type: functional, Mus musculus
L1210 [15] = experiment: Antitumor activity against L1210 cells at concentration 5 ug/mL and at 72 hr using direct cytotoxicity assay.; assay type: functional, Mus musculus
YAC-1 [16] = experiment: Antitumor activity against YAC-1 tumor cells at concentration 1 ug/mL and at 72 hr using Activated Macrophage Cytotoxicity assay.; assay type: functional, Mus musculus
L1210 [17] = experiment: Antitumor activity against L1210 cells at concentration 1 ug/mL and at 72 hr using Activated Macrophage Cytotoxicity assay.; assay type: functional, Mus musculus
P815 [18] = experiment: Antitumor activity against P815 cells at concentration 3 ug/mL and at 72 hr using direct cytotoxicity assay.; assay type: functional, Mus musculus
[19] = Antitumor activity against Abelson-8.1 cells at concentration 5 ug/mL and at 72 hr using direct cytotoxicity assay.; assay type: functional, Mus musculus
YAC-1 [20] = experiment: Antitumor activity against YAC-1 tumor cells at concentration 1 ug/mL and at 72 hr using direct cytotoxicity assay.; assay type: functional, Mus musculus
YAC-1 [21] = experiment: Antitumor activity against YAC-1 tumor cells at concentration 3 ug/mL and at 72 hr using direct cytotoxicity assay.; assay type: functional, Mus musculus
L1210 [22] = experiment: Antitumor activity against L1210 cells at concentration 3 ug/mL and at 72 hr using direct cytotoxicity assay.; assay type: functional, Mus musculus
L1210 [23] = experiment: Antitumor activity against L1210 cells at concentration 1 ug/mL and at 72 hr using direct cytotoxicity assay.; assay type: functional, Mus musculus
Mus musculus [24] = experiment: Antitumor activity against mouse macrophages after day 21 at dose 0.25 mg/kg by peroral administration; assay type: functional; conditions: route oral
P815 [25] = experiment: Antitumor activity against P815 cells at concentration 3 ug/mL and at 72 hr using Activated Macrophage Cytotoxicity assay.; assay type: functional, Mus musculus
P815 [26] = experiment: Antitumor activity against P815 cells at concentration 1 ug/mL and at 72 hr using direct cytotoxicity assay.; assay type: functional, Mus musculus
[27] = Antitumor activity against Abelson-8.1 cells at concentration 3 ug/mL and at 72 hr using direct cytotoxicity assay.; assay type: functional, Mus musculus
YAC-1 [28] = experiment: Antitumor activity against YAC-1 tumor cells at concentration 5 ug/mL and at 72 hr using direct cytotoxicity assay.; assay type: functional, Mus musculus
Mus musculus [29] = experiment: Mouse survived after 28 days at 2.5 mg/kg; 6/10; assay type: functional
[30] = Antitumor activity against Abelson-8.1 cells at concentration 3 ug/mL and at 72 hr using Activated Macrophage Cytotoxicity assay.; assay type: functional, Mus musculus
[31] = Antitumor activity against Abelson-8.1 cells at concentration 1 ug/mL and at 72 hr using direct cytotoxicity assay.; assay type: functional, Mus musculus
P815 [32] = experiment: Antitumor activity against P815 cells at concentration 5 ug/mL and at 72 hr using Activated Macrophage Cytotoxicity assay.; assay type: functional, Mus musculus
[33] = Antitumor activity against Abelson-8.1 cells at concentration 5 ug/mL and at 72 hr using Activated Macrophage Cytotoxicity assay.; assay type: functional, Mus musculus
P815 [34] = experiment: Antitumor activity against P815 cells at concentration 5 ug/mL and at 72 hr using direct cytotoxicity assay.; assay type: functional, Mus musculus
L1210 [35] = experiment: Antitumor activity against L1210 cells at concentration 3 ug/mL using Activated Macrophage Cytotoxicity assay.; assay type: functional, Mus musculus
Mus musculus [36] = experiment: Antitumor activity against mouse macrophages after day 28 at dose 0.25 mg/kg by peroral administration; assay type: functional; conditions: route oral
L1210 [37] = experiment: Antitumor activity against L1210 cells at concentration 5 ug/mL and at 72 hr using Activated Macrophage Cytotoxicity assay.; assay type: functional, Mus musculus
Mus musculus [38] = experiment: Mouse survived after 28 days at 0.25 mg/kg; 2/10; assay type: functional
L1210 [39] = experiment: Antitumor activity against L1210 cells at concentration 3 ug/mL and at 72 hr using Activated Macrophage Cytotoxicity assay.; assay type: functional, Mus musculus
Mus musculus [40] = experiment: Mouse survived after 28 days at 0.25 mg/kg; 8/10; assay type: functional

Compound	Control (Mus musculus [1])	Control (Mus musculus [2])	Control (Mus musculus [4])	Control (Mus musculus [5])	Control (Mus musculus [8])	Control (Mus musculus [9])	Viable cells (P815 [11])	Viable cells (YAC-1 [13])	Viable cells [14]	Viable cells (L1210 [15])	Viable cells (L1210 [17])	Viable cells (P815 [18])	Viable cells [19]	Viable cells (YAC-1 [20])	Viable cells (YAC-1 [21])	Viable cells (L1210 [22])	Viable cells (L1210 [23])	Control (Mus musculus [24])	Viable cells (P815 [25])	Viable cells (P815 [26])	further results
CCCCCCCCCCCCCCCCCCOC[C@@]1(COP(=O)([O-])OCC[N+](C)(C)C)CCCO1	32%	85%	21%	53%	–	–	–	–	–	–	–	–	–	–	–	–	–	–	–	–	Survivors (Mus musculus [3]): 3
CCCCCCCCCCCCCCCCCCOC[C@]1(COP(=O)([O-])OCC[N+](C)(C)C)CCCO1	13%	70%	8%	28%	–	–	–	–	–	–	–	–	–	–	–	–	–	–	–	–	Survivors (Mus musculus [6]): 8
CCCCCCCCCCCCCCCCCCOCC1(COP(=O)([O-])OCC[N+](C)(C)C)CCCO1 (racemic; 5)	21%	76%	14%	38%	47%	82%	3.4%	2.5%	0.4%	8.6%	9.4%	13%	2%	81%	26%	20%	100%	20%	0.7%	60%	Survivors (Mus musculus [7]): 3; Viable cells (YAC-1 [10]): 1.2%; Viable cells (L1210 [12]): 0.9%; Viable cells (YAC-1 [16]): 16%; Viable cells [27]: 2.6%; Viable cells (YAC-1 [28]): 8.9%; Survivors (Mus musculus [29]): 6; Viable cells [30]: 0.2%; Viable cells [31]: 32%; Viable cells (P815 [32]): 0.6%; Viable cells [33]: 0.1%; Viable cells (P815 [34]): 5.3%; Viable cells (L1210 [35]): 1.6%; Control (Mus musculus [36]): 32%
CCCCCCCCCCCCCCCCCCOCC1(COP(=O)([O-])OCC[N+](C)(C)C)CCCO1 (racemic; 8)	–	–	–	–	52%	90%	3.1%	1.6%	0.5%	13%	5.3%	20%	4.6%	92%	14%	24%	84%	21%	1.8%	68%	Viable cells (L1210 [37]): 1.1%; Survivors (Mus musculus [38]): 2; Viable cells [27]: 6.8%; Viable cells (YAC-1 [28]): 4.5%; Viable cells [31]: 71%; Viable cells (P815 [32]): 1.3%; Viable cells [33]: 0.2%; Viable cells (P815 [34]): 2.8%; Control (Mus musculus [36]): 37%; Viable cells (L1210 [39]): 1.4%
CCCCCCCCCCCCCCCCCCOCC1(COP(=O)([O-])OCC[N+](C)(C)C)CCCO1 (racemic; 9)	–	–	–	–	19%	66%	2.8%	2.3%	0.8%	3.2%	3.4%	7%	1.8%	60%	22%	7.7%	55%	6%	1.1%	16%	Viable cells (L1210 [37]): 0.2%; Viable cells (YAC-1 [10]): 0.9%; Viable cells (YAC-1 [16]): 11%; Viable cells [27]: 2.1%; Viable cells (YAC-1 [28]): 9%; Viable cells [30]: 0.3%; Viable cells [31]: 8.6%; Viable cells (P815 [32]): 0.3%; Viable cells [33]: 0.4%; Viable cells (P815 [34]): 2.6%; Survivors (Mus musculus [40]): 8; Viable cells (L1210 [35]): 0.6%; Control (Mus musculus [36]): 11%
